These results are taken from patent publication US11992499B2, “Quinoline derivatives for use in the treatment of inflammation diseases” (ABIVAX, priority 2018, dated 2024).

Assay [1] deals with monocrotaline model of pulmonary arterial hypertension. Kind of assay: Rat monocrotaline model of pulmonary arterial hypertension: mean pulmonary pressure. In kind it is in vivo. The following applies: for Effect on pulmonary pressure: pulmonary hypertension induced by monocrotaline; for Mean Pulmonary Pressure: MCT. The method, then:
• 1. The experimental trace to be analyzed is opened in Clampfit. • 2. Right atria pressure is recorded for 1 minute • 3. PAP recorded continuously for at least 1 minute or until loss of signal, is used to extract the mean, diastolic, and systolic pulmonary pressure. • 4. The systemic arterial pressure (SAP) recorded continuously is used to extract the mean, diastolic and systolic arterial pressure. • 5. At the end of the hemodynamic parameters recording, the right and left ventricle including the septum and the lung lobes is excised to determine wet weights. • 6. Each parameter is compiled for each group and presented in bar graphs with appropriate statistical analysis.
The appropriate amount of monocrotaline is weighed and ⅓ of the correct volume of 1.0N HCl is added and mixed to ensure monocrotaline solubilisation. The solution is then neutralized with ⅓ of the correct volume of 1.0 N NaOH. The pH of the solution is checked with a pH indicator paper/strip or an electronic pH meter and adjusted to neutral as necessary; the final volume is completed with water for injection to obtain a solution of 20 mg/mL. The monocrotaline solution is injected subcutaneously, over the shoulders, into the loose skin over the neck, to each rat at 3 mL/kg of body weight (dose is 60 mg/kg).
Compound A was administered as a suspension in the vehicle. To reach the required concentrations, compound A was grounded to a fine powder, using a mortar and pestle, and then mixed with 20% (final volume) of vehicle A1 until a suspension was achieved. 80% of vehicle A2 was then added to the suspension under magnetic stirring.
The appropriate amount of Sildenafil is weighed and appropriate volume of distillated water is added to obtain suspension at 5 mg/mL. The suspension is mixed with a stir bar for 30-60 minutes until a homogenous suspension is achieved. Care is taken to maintain a uniform suspension (stirring continuously) whilst doses are being drawn up into gavage syringes. One gavage syringe is filled at a time and administered before filling the next syringe. The solutions are stored refrigerated at 2 to 8° C. and protected from light. The expiration date is set at 7 days after preparation.
Animals from Groups 2 to 5 (see Table 13) receive a single subcutaneous injection of monocrotaline (60 mg/kg) solution on Day 0 and returned to their cages. Animals from Group 1 receive one subcutaneous injection vehicle for MCT on Day 0 and returned to their respective cages.
Treatment with the compound A, sildenafil or vehicle is administered as of Day 7 (Groups 2-5) as scheduled and described in Table 13. The Groups 2-4 receive a single dose per day. The reference group 5 receives sildenafil twice a day. Food and water are given ad libitum. Daily observation of the behaviour and general health status of the animals is done. Weekly body weight is taken.
Surgical Instrumentation and Measurement of Hemodynamic and Functional Parameters in Efficacy Study Animals • 1. On the selected day of surgery, rats are anaesthetized with a mixture of 2 to 2.5% isoflurane USP (Abbot Laboratories, Montreal, Canada) in oxygen, and placed on a heating pad to maintain body temperature. • 2. Rats are tracheotomized and immediately ventilated by means of a positive-pressure rodent respirator set at ≈10 ml/kg bodyweight at a frequency of 65-70 strokes/min. • 3. Lead II ECG contact electrodes is placed on the rat to continuously monitor the ECG during the surgical procedure. • 4. A cannula connected to a pressure transducer is inserted into the left femoral artery to measure the arterial blood pressure. • 5. A cannula connected to a pressure transducer is inserted into the right atria through the right jugular vein to measure the right atria pressure. • 6. The heart is exposed through a sternotomy and a 20GA 1.16 in Insyte is introduced into the right ventricle and rapidly hooked up to a saline filled PE-50 catheter connected to a transducer. • 7. […]

For assay [2], the system named is STAM model of non-alcoholic steatohepatitis. The experiment in a line: STAM model of NASH: F4/80 immunostaining. It counts as in vivo, mice. Conditions: for F4/80-positive area (mean ± SD): n = 8. As to the method: NASH was induced in 48 male mice by a single subcutaneous injection of 200 μg streptozotocin (STZ, Sigma-Aldrich, USA) solution 2 days after birth and feeding with high fat diet (HFD, 57 kcal % fat, Cat #HFD32, CLEA Japan, Inc., Japan) after 4 weeks of age.
Compound A was administered at 3 dose levels of 10, 20 and 40 mg/kg once daily from 6 to 9 weeks of age. Compound B was administered at a dose of 40 mg/kg once daily from 6 to 9 weeks of age. Telmisartan was administered at a dose of 10 mg/kg once daily from 6 to 9 weeks of age.

For assay [3] the test system is unchanged. The experiment in a line: STAM model of NASH: Alpha-SMA immunostaining. It counts as in vivo, mice. Conditions: for Alpha-SMA-positive area (mean ± SD): n = 8. As to the method: NASH was induced in 48 male mice by a single subcutaneous injection of 200 μg streptozotocin (STZ, Sigma-Aldrich, USA) solution 2 days after birth and feeding with high fat diet (HFD, 57 kcal % fat, Cat #HFD32, CLEA Japan, Inc., Japan) after 4 weeks of age. Compound A was administered at 3 dose levels of 10, 20 and 40 mg/kg once daily from 6 to 9 weeks of age. Compound B was administered at a dose of 40 mg/kg once daily from 6 to 9 weeks of age. Telmisartan was administered at a dose of 10 mg/kg once daily from 6 to 9 weeks of age. […] (Table 9 herein after)

The mark [4] stands for this setting: summary statement, dose not stated.
Setting [5] is: 10 mg/kg PO QD, 6-9 wks of age (Compound A low, Telmisartan groups).
The mark [6] stands for this setting: 20 mg/kg PO QD, 6-9 wks of age (Compound A middle group).
[7] abbreviates: 40 mg/kg PO QD, 6-9 wks of age (Compound A high, Compound B groups).

Structures are written as SMILES.

`FC(F)(F)Oc1ccc(Nc2ccc3cccc(Cl)c3n2)cc1` [8-Chloro-N-(4-(trifluoromethoxy)phenyl)quinolin-2-amine]: the “Effect on pulmonary pressure” value in assay [1] (female rat) is listed as “reduces significantly”. The “F4/80-positive area in the liver” value in assay [2] (setting [4]) was “decreased”. Further, the “Alpha-SMA in the liver” value in assay [3] (setting [4]) is reported as “decreases”.

`FC(F)(F)Oc1ccc(Nc2ccc3cccc(Cl)c3n2)cc1` [Compound A, 8-Chloro-N-(4-(trifluoromethoxy)phenyl)quinolin-2-amine]: the “Mean Pulmonary Pressure” value in assay [1] (female rat, 70 mg/kg QD gavage Day 7 to Day 28, n = 7) was found to be 22.2 mmHg; in assay [1] (female rat, 120 mg/kg QD gavage Day 7 to Day 28, n = 11) it was 16.9 mmHg. For the same compound, the results for the “Effect on pulmonary pressure” value in assay [1] (female rat) and in assay [1] (male rat) were “reduces significantly” and “no effect”, respectively. Also, the “F4/80-positive area (mean ± SD)” value in assay [2] (setting [5]) turned out to be 2.22 ± 0.46%; in assay [2] (setting [6]), 1.88 ± 0.62%; in assay [2] (setting [7]), 1.53 ± 0.77%. In addition, the “F4/80-positive area compared with the Vehicle group” value in assay [2] (20 mg/kg PO QD (Compound A middle group)) was “tended to decrease”; in assay [2] (40 mg/kg PO QD (Compound A high, Compound B groups)) it was “significant decrease”. In addition, the “Alpha-SMA-positive area (mean ± SD)” value in assay [3] (setting [5]) is 1.39 ± 1.25%; in assay [3] (setting [6]), 0.91 ± 0.55%; in assay [3] (setting [7]), 0.85 ± 0.41%. In addition, the “Alpha-SMA-positive area compared with the Vehicle group” value in assay [3] (40 mg/kg PO QD (Compound A high group)) is on record as “tended to decrease”.
